Laboratory results: the supplement of paper PMC11061612

What was measured:
Experiment in all cases: combination Emax (second highest fraction inhibited in the dose matrix, 72 h); higher = more inhibition; extreme values may be limits of the assay
T47D (Breast Carcinoma) = test system: T47D (Breast Carcinoma)
Summary of the method: (§1)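 Cell lines in DMEM/F12 or RPMI with 10% FBS were plated in 1536-well plates, held 24 hours at 37°C, 5% CO2, then given two-drug dose matrices for 72 hours (DMSO typically 0.2%). Viability was read by CellTiter-Glo 2.0 luminescence and scaled as inhibition from 0 (vehicle wells) to 1 (blank wells). Combination Emax is the second-highest inhibition in the matrix; Bliss excess is observed combination effect minus expected EA + EB − EA·EB, EA and EB being single-agent effects.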

UACC-257 (Melanoma) = test system: UACC-257 (Melanoma)
Summary of the method: as §1

[1] = test system: LS-1034 (Colorectal Carcinoma)
Summary of the method: as §1

[2] = test system: CL-11 (Colorectal Carcinoma)
Summary of the method: as §1

[3] = test system: COR-L88 (Small Cell Lung Carcinoma)
Summary of the method: as §1

[4] = test system: TUR (Acute Myeloid Leukemia)
Summary of the method: as §1

IST-MEL1 (Melanoma) = test system: IST-MEL1 (Melanoma)
Summary of the method: as §1

[5] = test system: SNU-C2B (Colorectal Carcinoma)
Summary of the method: as §1

[6] = test system: PL4 (Pancreatic Carcinoma)
Summary of the method: as §1

[7] = test system: NCI-H3118 (Head and Neck Carcinoma)
Summary of the method: as §1

[8] = test system: MS-1 (Small Cell Lung Carcinoma)
Summary of the method: as §1

[9] = test system: RCC-JW (Kidney Carcinoma)
Summary of the method: as §1

[10] = test system: P32-ISH (Burkitt's Lymphoma)
Summary of the method: as §1

[11] = test system: SiHa (Cervical Carcinoma)
Summary of the method: as §1

[12] = test system: SUP-M2 (T-Cell Non-Hodgkin's Lymphoma)
Summary of the method: as §1

[13] = test system: OAW-28 (Ovarian Carcinoma)
Summary of the method: as §1

KALS-1 (Glioblastoma) = test system: KALS-1 (Glioblastoma)
Summary of the method: as §1

AM-38 (Glioblastoma) = test system: AM-38 (Glioblastoma)
Summary of the method: as §1

[14] = test system: Raji (Burkitt's Lymphoma)
Summary of the method: as §1

[15] = test system: MM1S (Plasma Cell Myeloma)
Summary of the method: as §1

Compound	combination Emax (T47D (Breast Carcinoma))	combination Emax (UACC-257 (Melanoma))	combination Emax [1]	combination Emax [2]	combination Emax [3]	combination Emax [4]	combination Emax (IST-MEL1 (Melanoma))	combination Emax [5]	combination Emax [6]	combination Emax [7]	combination Emax [8]	combination Emax [9]	combination Emax [10]	combination Emax [11]	combination Emax [12]	combination Emax [13]	combination Emax (KALS-1 (Glioblastoma))	combination Emax (AM-38 (Glioblastoma))	combination Emax [14]	combination Emax [15]
COc1cc2c(cc1OCCCCCOc1cc3c(cc1OC)C(=O)N1C=C(C)C[C@H]1C=N3)N=C[C@@H]1CC(C)=CN1C2=O [SG3199] + O=C(c1cc(Cc2n[nH]c(=O)c3ccccc23)ccc1F)N1CCN(C(=O)C2CC2)CC1 [Olaparib] (first compound max 0.001 µM, 7x7, partner max 10 µM)	0.164	0.0273	0.0272	0.111	0.237	0.112	0.181	0.249	0.204	0.118	0.379	0.0774	0.247	0.0997	0.839	0.245	0.163	0.306	0.43	0.293
CCc1c2c(nc3ccc(O)cc13)-c1cc3c(c(=O)n1C2)COC(=O)[C@]3(O)CC [SN-38] + CN(C)CCCOc1ccc(-c2ccc3ncc4c(c3c2)n(C2CCOCC2)c(=O)n4C)cn1 [AZD0156] (first compound max 0.3 µM, 7x7, partner max 1 µM)	0.643	0.281	0.814	0.764	0.472	0.982	0.864	0.397	0.828	0.402	0.63	0.656	1	0.235	1	0.791	0.596	0.917	0.958	0.966
C[C@@H](c1ccc2nccn2c1)n1nnc2ncc(-c3cnn(C)c3)nc21 [Savolitinib] + CC1(C)CCC(CN2CCN(c3ccc(C(=O)NS(=O)(=O)c4ccc(NCC5CCOCC5)c([N+](=O)[O-])c4)c(Oc4cnc5[nH]ccc5c4)c3)CC2)=C(c2ccc(Cl)cc2)C1 [Venetoclax] (first compound max 1 µM, 7x7, partner max 1 µM)	0.153	0.104	0.0816	0.09	0.207	0.0127	0.124	0.0589	0.125	0.115	0.155	0.124	0.0681	0.137	0.182	0.163	0.113	0.0558	0.171	0.116
C[C@@H](c1ccc2nccn2c1)n1nnc2ncc(-c3cnn(C)c3)nc21 [Savolitinib] + Cc1c2c(nn1C)CSCc1cc(n(C)n1)CSc1cc(c3ccccc3c1)OCCCc1c(C(=O)O)n(C)c3c-2c(Cl)ccc13 [AZD5991] (first compound max 1 µM, 7x7, partner max 1 µM)	0.23	0.151	0.128	0.132	0.23	0.347	0.104	0.187	0.189	0.225	0.26	0.106	1	0.167	1	0.142	0.186	0.244	0.751	0.225
Cn1cnc2c(F)c(Nc3ccc(Br)cc3Cl)c(C(=O)NOCCO)cc21 [Selumetinib] + C=CCn1c(=O)c2cnc(Nc3ccc(N4CCN(C)CC4)cc3)nc2n1-c1cccc(C(C)(C)O)n1 [AZD1775] (first compound max 10 µM, partner max 1 µM)	0.34	0.607	0.747	0.855	0.666	0.764	0.527	0.463	0.63	0.902	0.778	0.16	0.999	0.22	0.996	0.395	0.755	0.563	0.681	0.746
Cn1cnc2c(F)c(Nc3ccc(Br)cc3Cl)c(C(=O)NOCCO)cc21 [Selumetinib] + CC(C)n1c(=O)n(C)c2cnc3cc(F)c(-c4ccc(OCCCN5CCCCC5)nc4)cc3c21 [AZD1390] (first compound max 10 µM, 7x7, partner max 0.3 µM)	0.109	0.568	0.689	0.691	0.198	0.272	0.289	0.29	0.567	0.577	0.117	0.0923	0.101	0.156	0.168	0.332	0.405	0.437	0.233	0.264
Cn1cnc2c(F)c(Nc3ccc(Br)cc3Cl)c(C(=O)NOCCO)cc21 [Selumetinib] + CCN(CCO)CCCOc1ccc2c(Nc3cc(CC(=O)Nc4cccc(F)c4)[nH]n3)ncnc2c1 [AZD2811] (first compound max 10 µM, 7x7, partner max 1 µM)	0.29	0.68	0.671	0.709	0.257	0.349	0.361	0.335	0.572	0.537	0.179	0.132	0.867	0.22	0.998	0.408	0.417	0.542	0.0936	0.283
Cn1cnc2c(F)c(Nc3ccc(Br)cc3Cl)c(C(=O)NOCCO)cc21 [Selumetinib] + C[C@@H]1COCCN1C2=NC(=NC(=C2)C3(CC3)[S@](=N)(=O)C)C4=C5C=CNC5=NC=C4 [AZD6738] (first compound max 10 µM, 7x7, partner max 10 µM)	0.158	0.595	0.811	0.873	0.494	0.934	0.74	0.468	0.798	0.653	0.667	0.386	0.918	0.209	1	0.598	0.681	0.706	0.722	0.475
CC(=O)Nc1cccc(-n2c(=O)n(C3CC3)c(=O)c3c(Nc4ccc(I)cc4F)n(C)c(=O)c(C)c32)c1 [Trametinib] + Cc1nc(-c2cn3c(n2)-c2ccc(-c4cnn(C(C)(C)C(N)=O)c4)cc2OCC3)n(C(C)C)n1 [Taselisib] (first compound max 1 µM, 7x7, partner max 10 µM)	0.643	0.806	0.787	0.989	0.154	0.992	0.932	0.676	0.951	0.966	0.513	0.556	0.508	0.302	0.534	0.589	0.951	0.909	0.144	1
CC1(C)CCC(CN2CCN(c3ccc(C(=O)NS(=O)(=O)c4ccc(NCC5CCOCC5)c([N+](=O)[O-])c4)c(Oc4cnc5[nH]ccc5c4)c3)CC2)=C(c2ccc(Cl)cc2)C1 [Venetoclax] + C1CN(CCC1(C(=O)N[C@@H](CCO)C2=CC=C(C=C2)Cl)N)C3=NC=NC4=C3C=CN4 [Capivasertib] (first compound max 1 µM, 7x7, partner max 3 µM)	0.373	0.123	0.207	0.162	0.557	0.599	0.36	0.25	0.197	0.169	0.36	0.157	0.306	0.282	0.248	0.134	0.714	0.0317	0.132	0.978
CC1(C)CCC(CN2CCN(c3ccc(C(=O)NS(=O)(=O)c4ccc(NCC5CCOCC5)c([N+](=O)[O-])c4)c(Oc4cnc5[nH]ccc5c4)c3)CC2)=C(c2ccc(Cl)cc2)C1 [Venetoclax] + C=CCn1c(=O)c2cnc(Nc3ccc(N4CCN(C)CC4)cc3)nc2n1-c1cccc(C(C)(C)O)n1 [AZD1775] (first compound max 1 µM, partner max 1 µM)	0.219	0.185	0.56	0.502	0.939	0.911	0.799	0.609	0.551	0.836	0.939	0.286	1	0.223	0.981	0.233	0.93	0.289	0.725	0.908
CC1(C)CCC(CN2CCN(c3ccc(C(=O)NS(=O)(=O)c4ccc(NCC5CCOCC5)c([N+](=O)[O-])c4)c(Oc4cnc5[nH]ccc5c4)c3)CC2)=C(c2ccc(Cl)cc2)C1 [Venetoclax] + CCN(CCO)CCCOc1ccc2c(Nc3cc(CC(=O)Nc4cccc(F)c4)[nH]n3)ncnc2c1 [AZD2811] (first compound max 1 µM, 7x7, partner max 1 µM)	0.266	0.226	0.114	0.267	0.667	0.258	0.504	0.185	0.248	0.207	0.34	0.184	0.912	0.172	0.898	0.314	0.661	0.221	0.122	0.265
